Assay results: patent publication EP0234931A1, “Azaanthracene compounds” (TAISHO PHARMACEUTICAL CO. LTD, priority 1986, dated 1987)

System: p388 lymphocytic leukemia
Experiment: P388 Lymphocytic Leukemia Test
Format: in vivo, CDF₁ mice
Conditions: median survival time treated/control
Description: P388 Lymphocytic Leukemia Test
Female, CDF₁ mice (5-6 weeks old, weighing 17-20 g) were intraperitoneally transplanted with 1 × 10⁶ cells of p388 lymphocytic leukemia passaged on female, DBA/2 mice on day 0.
A suspension of the compound of formula (I) in 0.5% of gum arabic saline solution was administered intraperitoneally once a day, 5 times in all, from day l to day 5, or 2 times in all, day l and day 5. A solution of 5-fluorouracil in saline served as a reference drug, and was administered similarly. Control group were similarly administered with only 0.5% gum arabic saline solution.
Eight animals were used for the treated group with the compound of formula (I) and the reference drug, respectively, and 16 animals for control group.
The antitumor effect was evaluated according to the criterion of the National Cancer Institute of the United States (NCI). The survivors of each group were recorded for 30 days, and the value of T/C × 100 (%) was calculated from the median survival times for the treated animals (T) and the control animals (C). When the value is 125 or more, the drug is judged to be effective.

[1] = Dose 25.0 mg/kg intraperitoneally, administration day 1 - 5
[2] = Dose 50.0 mg/kg intraperitoneally, administration day 1 - 5

With `CN(C)CCNC(=O)c1c(O)c2ccccc2c2nc3ncccc3nc12` [Compound 5, N-β-dimethylaminoethyl 5-hydroxybenzo[f]pyrido[3,2-b]quinoxaline-6-carboxamide] the “T/C x 100” value [1] was 130%, the “T/C x 100” value (Dose 50.0 mg/kg intraperitoneally, administration day 1, 5) was 135% and the “T/C x 100” value (Dose 100 mg/kg intraperitoneally, administration day 1, 5) was 195%. For the same compound, the “T/C x 100” value (Dose 200 mg/kg intraperitoneally, administration day 1, 5) was 200%.

In the case of `CN(C)CCNC(=O)c1c(O)c2ccccc2c2nc3ncncc3nc12` [Compound 8, N-β-dimethylaminoethyl 5-hydroxynaphtho[2,1-g]pteridine-6-carboxamide], the “T/C x 100” value [1] is reported as 133%, the “T/C x 100” value [2] is reported as 153% and the “T/C x 100” value (Dose 100 mg/kg intraperitoneally, administration day 1 - 5) is reported as 148%.

With `O=C(NCCNCCO)c1c(O)c2ccccc2c2nc3ncccc3nc12` [Compound 7, N-2-(2-hydroxyethylamino)ethyl 5-hydroxybenzo[f]pyrido[3,2-b]quinoxaline-6-carboxamide] the “T/C x 100” value [1] was 174% and the “T/C x 100” value [2] was 227%.

`CN(C)CCNC(=O)c1c(O)c2ccccc2c2nc3ccncc3nc12` [Compound 1, N-β-dimethylaminoethyl 5-hydroxybenzo[f]pyrido[3,4-b]quinoxaline-6-carboxamide] was tested, and the “T/C x 100” value (Dose 6.3 mg/kg intraperitoneally, administration day 1, 5, 30 days observation) was 133%, the “T/C x 100” value (Dose 12.5 mg/kg intraperitoneally, administration day 1, 5) was 137% and the “T/C x 100” value (Dose 25.0 mg/kg intraperitoneally, administration day 1, 5) was 275%.

With `O=c1[nH]cc(F)c(=O)[nH]1` [5-fluoro-uracil, 5-fluorouracil, reference compound] the “T/C x 100” value (Dose 3.1 mg/kg intraperitoneally, administration day 1 - 5) was 136%, the “T/C x 100” value (Dose 6.3 mg/kg intraperitoneally, administration day 1 - 5) was 148% and the “T/C x 100” value (Dose 12.5 mg/kg intraperitoneally, administration day 1 - 5) was 166%. The “T/C x 100” value [1] was 176%.
